This assay concerns m-IMCD3 cells. The assay can be described thus: Inhibition of PGE2-stimulated in vitro cyst formation in 3D culture of m-IMCD3 cells. It counts as cell-based, mouse. As to conditions: Mus musculus, mIMCD3, 144 h; 10 μM test compound; mean cyst area (%) compared to 100% for (DMSO + PGE2) and 0% for DMSO control; 100 nM PGE2; 6 days; read-out: % Cyst area after incubation with 10 μM test compound. Here is the method: HEK 293 and MDCK cells (Public Health England, Cell Culture Collections) were maintained in Dulbecco's Modified Eagle's Medium (DMEM) supplemented with 10% (v/v) fetal bovine serum (FBS) (Seralab), 2 mM L-glutamine and 100 U/ml penicillin streptomycin cocktail (ThermoFisher); termed complete media. Clonal HEK 293 cell lines were maintained in complete media supplemented with 0.6 mg/mL G418 (Enzo Life Sciences). Mouse inner medullary collecting duct (m-IMCD3) cells [American Type Culture Collection (ATCC)] were maintained in media consisting of DMEM/Hams F-12 50/50 Mix (DMEM F12; Corning) supplemented with penicillin streptomycin cocktail (100 U/ml) and FBS (10% v/v) (DMEM F12-10% FBS).
The mouse Inner Medullary Collecting Duct cell line (m-IMCD3) spontaneously forms cystic spheroids in 3D culture with a Type 1 collagen/Matrigel extracellular matrix. This process can be stimulated with agents which raise intracellular cAMP, such as PGE2, and is used as an in vitro model for the formation of cystic structures in the kidneys of patients with ADPKD.
Rat Collagen I (Fisher Scientific) is prepared on ice by neutralising with 1M NaOH and diluting with a 2×volume of DMEM/F12+10% FBS for coating plate (coating mix) and a 2.2 volume of DMEM/F12+10% FBS for cell plating (plating mix). This is mixed 1:1.1 with ice cold Matrigel (Corning) for coating plates (coating mix), and 1:0.95 with Matrigel for cell plating (plating mix).
The assay is conducted in the wells of a 96-well plate culture dish using a total volume of 130 μl of collagen/Matrigel/DMEM F12-10% FBS suspension in growth media for each matrix plug per individual well. Initially, 30 μl of collagen/Matrigel/DMEM F12-10% FBS (coating mix) is added into the well of a 96 well plate and the collagen is set to a gel by incubating at 37° C. for at least 15 minutes. A second layer of 100 μl collagen/Matrigel suspension (plating mix) containing m-IMCD3 cells (2.75×10^6 m-IMCD3 cells per 96-well plate) is layered over the coating mix and the collagen/Matrigel/cell mix again set to a gel by incubating at 37° C. Cell cultures are maintained at 37° C. in an atmosphere of 5% CO2, 95% air.
Between 18 and 24h after plating, test compound(s) as DMSO stock solutions [0.1% (v/v) final DMSO concentration] and PGE2 (100 nM final concentration) in DMEM F12-10% FBS are added in quadruplicate wells per condition. Media, togetherwith the test compound and PGE2 are replenished after 2 or 3 days. After 6 days of culture z stack images of the wells are captured using the Nikon Eclipse Ti2-E microscope. Nikon General Analysis software is used to measure the following parameters in each well: the mean cyst area, the number of cysts, and the total cyst area.
PDE4 long form activators inhibited in vitro cyst formation in m-IMCD3 cells. Data are shown in FIG. 2 and Table 5 as mean cyst area (%), compared to 100% for (DMSO+PGE2) and 0% for DMSO control.
In the case of `O=C(N[C@H]1CCc2ccccc21)c1ccc2nc(N3CCNCC3)sc2c1` [Example 96, (S)-N-(2,3-dihydro-1H-inden-1-yl)-2-(piperazin-1-yl)benzo[d]thiazole-6-carboxamide], the activity at 10 µM turned out to be 2%.

As for `COc1ccc2c(c1)OCC[C@H]2NC(=O)c1ccc2nc(N3CCNCC3)sc2c1` [Example 93, (R)-N-(7-methoxychroman-4-yl)-2-(piperazin-1-yl)benzo[d]thiazole-6-carboxamide], the activity at 10 µM came out at 9%.

`CCN1CCN(c2nc3ccc(C(=O)NC(C)C)cc3s2)CC1` [Example 82, 2-(4-ethylpiperazin-1-yl)-N-isopropylbenzo[d]thiazole-6-carboxamide]: the activity at 10 µM came out at 6%.

Regarding `CCN1CC(c2nc3ccc(C(=O)NC4CCCC4)cc3s2)C1` [Example 281, N-cyclopentyl-2-(1-ethylazetidin-3-yl)benzo[d]thiazole-6-carboxamide], the activity at 10 µM turned out to be 10%.

As to `COc1cc2nc(C3CCNCC3)sc2cc1C(=O)NC1CCOCC1` [Example 200, 5-methoxy-2-(piperidin-4-yl)-N-(tetrahydro-2H-pyran-4-yl)benzo[d]thiazole-6-carboxamide], the activity at 10 µM stood at 3%.

On to `CC(C)NC(=O)c1cc(C2CC2)c2nc(C3CCNCC3)sc2c1` [Example 232, 4-cyclopropyl-N-isopropyl-2-(piperidin-4-yl)benzo[d]thiazole-6-carboxamide], for which the activity at 10 µM was -2%.

In the case of `CN1CCC(c2nc3c(Cl)cc(C(=O)NC4CCCC4)cc3s2)CC1` [Example 231, 4-chloro-N-cyclopentyl-2-(1-methylpiperidin-4-yl)benzo[d]thiazole-6-carboxamide], the activity at 10 µM worked out at 1%.

`O=C(NC1CCCC1)c1ccc2sc(C3CCNCC3)nc2c1` [Example 283, N-cyclopentyl-2-(piperidin-4-yl)benzo[d]thiazole-5-carboxamide]: the activity at 10 µM was 14%.

In the case of `O=C(NCc1ccc(F)cc1)c1ccc2nc(C3CCNCC3)sc2c1` [Example 124, N-(4-fluorobenzyl)-2-(piperidin-4-yl)benzo[d]thiazole-6-carboxamide], the activity at 10 µM was 11%.

On to `Cc1ncccc1-c1nc2ccc(C(=O)N[C@H]3CCc4ccccc43)cc2s1` [Example 5, (S)-N-(2,3-dihydro-1H-inden-1-yl)-2-(2-methylpyridin-3-yl)benzo[d]thiazole-6-carboxamide], for which the activity at 10 µM was found to be 1%.

Regarding `Cc1ccnc(C)c1-c1nc2ccc(C(=O)N[C@H]3CCOc4ccccc43)cc2s1` [Example 52, (S)-N-(chroman-4-yl)-2-(2,4-dimethylpyridin-3-yl)benzo[d]thiazole-6-carboxamide], the activity at 10 µM came out at 24%.

As for `CC(CO)c1cc(C(=O)NC2CCCC2)cc2sc(N3C4CCC3CNC4)nc12` (stereo not shown) [Example 249, N-cyclopentyl-2-(3,8-diazabicyclo[3.2.1]octan-8-yl)-4-(1-hydroxypropan-2-yl)-benzo[d]thiazole-6-carboxamide], the activity at 10 µM is 9%.

`Cc1cc(C(=O)N[C@H]2CCOc3ccccc32)c(C)c2sc(C3CCNCC3)nc12` [Example 230, (S)-N-(chroman-4-yl)-4,7-dimethyl-2-(piperidin-4-yl)benzo[d]thiazole-6-carboxamide]: the activity at 10 µM amounted to 25%.

With `CN1CCN(c2nc3ccc(C(=O)N[C@H]4CCOc5ccccc54)cc3s2)CC1` [Example 71, (S)-N-(chroman-4-yl)-2-(4-methylpiperazin-1-yl)benzo[d]thiazole-6-carboxamide], the activity at 10 µM was -1%.

Regarding `CCc1ccc(-c2nc3ccc(C(=O)N[C@H]4CCOc5ccccc54)cc3s2)cn1` [Example 29, (S)-N-(chroman-4-yl)-2-(6-ethylpyridin-3-yl)benzo[d]thiazole-6-carboxamide], the activity at 10 µM was 22%.

On to `CCN1CCN(c2nc3ccc(C(=O)NCc4ccc(F)cc4)cc3s2)CC1` [Example 80, 2-(4-ethylpiperazin-1-yl)-N-(4-fluorobenzyl)benzo[d]thiazole-6-carboxamide], for which the activity at 10 µM was 26%.

As for `O=C(N[C@@H]1CCOc2cc(F)ccc21)c1ccc2nc(N3CCNCC3)sc2c1` [Example 88, (R)-N-(7-fluorochroman-4-yl)-2-(piperazin-1-yl)benzo[d]thiazole-6-carboxamide], the activity at 10 µM was found to be 22%.

In the case of `CCN1CCC(c2nc3ccc(C(=O)N[C@@H]4c5ccccc5C[C@@H]4O)cc3s2)CC1` [Example 166, 2-(1-ethylpiperidin-4-yl)-N-((1R,2S)-2-hydroxy-2,3-dihydro-1H-inden-1-yl)benzo[d]thiazole-6-carboxamide], the activity at 10 µM was -10%.

In the case of `CCN1CCC(c2nc3ccc(C(=O)NC4CCCC4)c(C)c3s2)CC1` [Example 193, N-cyclopentyl-2-(1-ethylpiperidin-4-yl)-7-methylbenzo[d]thiazole-6-carboxamide], the activity at 10 µM was found to be 2%.

For `CN1C[C@@H]2CN(c3nc4ccc(C(=O)NC5CCCCC5)cc4s3)C[C@@H]2C1` [Example 261, N-cyclohexyl-2-((3aR,6aS)-5-methylhexahydropyrrolo[3,4-c]pyrrol-2 (1H)-yl)benzo[d]thiazole-6-carboxamide], the activity at 10 µM is 3%.

On to `CN1CCC(c2nc3ccc(C(=O)N[C@@H]4CCC[C@H]4O)cc3s2)CC1` [Example 274, N-[(1R,2R)-2-hydroxycyclopentyl]-2-(1-methylpiperidin-4-yl)benzo[d]thiazole-6-carboxamide], for which the activity at 10 µM worked out at 16%.

As to `Cc1cc(C(=O)NC2CCCC2)cc2sc(C3CCNCC3)nc12` [Example 181, N-cyclopentyl-4-methyl-2-(piperidin-4-yl)benzo[d]thiazole-6-carboxamide], the activity at 10 µM was 13%.

Source of the values: US20240150339A1, “Compounds and Their Use as PDE4 Activators” (Mironid Limited, priority 2021, published 2024).
